From PubChem BioAssay (NCI)
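Protocol summary: plate cells (96-well), add compound at 5 concentrations, incubate 48 h, interpolate endpoints linearly. GI50 marks 50% less growth. TGI denotes the concentration required for complete inhibition of growth.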

Columns and labels:
Test in all cases: growth of human tumour cells (NCI), 48 h
DU-145 prostate = test system: DU-145 prostate
HCT-15 colon = test system: HCT-15 colon
HL-60(TB) leukemia = test system: HL-60(TB) leukemia
LOX IMVI melanoma = test system: LOX IMVI melanoma
M14 melanoma = test system: M14 melanoma
MCF7 breast = test system: MCF7 breast
MOLT-4 leukemia = test system: MOLT-4 leukemia
SF-295 CNS = test system: SF-295 CNS
SW-620 colon = test system: SW-620 colon
U251 CNS = test system: U251 CNS

| Compound | GI50 (DU-145 prostate) [µM] | TGI (DU-145 prostate) [µM] | GI50 (HCT-15 colon) [µM] | TGI (HCT-15 colon) [µM] | GI50 (HL-60(TB) leukemia) [µM] | TGI (HL-60(TB) leukemia) [µM] | GI50 (LOX IMVI melanoma) [µM] | TGI (LOX IMVI melanoma) [µM] | GI50 (M14 melanoma) [µM] | TGI (M14 melanoma) [µM] | GI50 (MCF7 breast) [µM] | TGI (MCF7 breast) [µM] | GI50 (MOLT-4 leukemia) [µM] | TGI (MOLT-4 leukemia) [µM] | GI50 (SF-295 CNS) [µM] | TGI (SF-295 CNS) [µM] | GI50 (SW-620 colon) [µM] | TGI (SW-620 colon) [µM] | GI50 (U251 CNS) [µM] | TGI (U251 CNS) [µM] |
| --- | --- | --- | --- | --- | --- | --- | --- | --- | --- | --- | --- | --- | --- | --- | --- | --- | --- | --- | --- | --- |
| O=C1c2ccc3c4c(ccc(c24)C(=O)N1CCCNCc1ccccc1)C(=O)N(CCCNCc1ccccc1)C3=O | 0.156 | 0.297 | 0.116 | 0.316 | 0.163 | 0.412 | 0.135 | 0.363 | 0.161 | 0.307 | 0.0808 | 0.33 | 0.0858 | 0.437 | 0.173 | 0.432 | 0.0758 | 0.326 | 0.112 | 0.301 |
| CNS(=O)(=O)c1ccccc1C(=N)c1ccccc1 |  | > 100 |  | > 100 |  | > 100 |  | > 100 |  | > 100 |  | > 100 |  | > 100 |  | > 100 |  | > 100 |  | > 100 |
| C/C(=C1/N=C(c2ccccc2)OC1=O)c1ccc(C)cc1 |  | > 100 |  | > 100 |  | > 100 |  | > 100 |  | > 100 |  | > 100 |  | > 100 |  | > 100 |  | > 100 |  | > 100 |
| C[C@@H]1[C@H]2[C@H](C=C3[C@@H]4CC[C@H]5Cc6nc7c(nc6C[C@]5(C)[C@H]4C[C@@H](O)[C@@]32C)C[C@@H]2CC[C@H]3C4=C[C@@H]5O[C@@]6(CC[C@](C)(CO)O6)[C@@H](C)[C@@]5(O)[C@@]4(C)[C@H](O)C[C@@H]3[C@@]2(C)C7)O[C@]12CCC(C)(C)O2 | 2.87 | 37.2 | 0.43 | 8.14 | 0.419 | 7.76 | 0.51 | 3.6 | 1.22 | 10.5 | 0.49 | 15.3 | 0.259 | 0.857 | 0.0698 | 0.259 | 0.711 | 7.92 | 0.2 | 7.06 |
| O=[N+]([O-])c1cccc(/C=C/c2ccccn2)c1 | 35.6 | > 100 | 4.84 | > 100 | 49.9 | > 100 | 10.6 | > 100 | 52.1 | > 100 | 0.569 | > 100 | > 100 | > 100 | 35.6 | > 100 | 5.95 | > 100 | 6.68 | > 100 |
| COc1cc([N+](=O)[O-])c(S(=O)(=O)O)cc1N |  | > 100 |  | > 100 |  | > 100 |  | > 100 |  | > 100 |  | > 100 |  | > 100 |  |  |  | > 100 |  | > 100 |
| O=C(C[C@@]1(O)C(=O)Nc2c(Cl)ccc(Cl)c21)c1ccc(C2CC2)cc1 | 0.492 | 17.1 | 0.102 | 13.6 | 0.263 | 1.07 | 0.541 | 13.9 | 0.184 | 13.8 | 0.171 | 18.2 | 0.505 | 14.6 | 0.344 | 13.3 | 0.19 | 16.5 | 0.436 | 16.2 |
